# In ChEMBL document CHEMBL5604062, “ASAP - ZIKV NS2B-NS3 protease fluorescence dose response” (2024):
# Values joined by “and” are separate entries in the source; they are usually repeats but may differ in a detail not shown here. Equal entries are not always repeated.
# Target: Nonstructural protein 3 (Zika virus, UniProt A0A024AXB9)
# Assay: Functional biochemical assay to identify treatments for viral infectious disease that targets Zika NS2B-NS3 protease. Utilizing a direct enzyme activity measurement method, reading the fluorescence intensity is used to characterize the relative potency of inhibitors as IC50.
# Design: species or system PRVABC59
# Sequence of Nonstructural protein 3 (A0A024AXB9 whole entry): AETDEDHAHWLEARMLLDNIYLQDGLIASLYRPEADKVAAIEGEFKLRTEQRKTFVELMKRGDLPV
row,Structure (SMILES),IC50
1,CCn1c(=O)c(N2CC[C@H](CO)C2)nc2ccc(C(N)=O)cc21,> 99.5 µM
2,O=C(Nc1cc(Cl)cc(C(=O)Nc2ccc3c(c2)C[C@H](O)C3)c1)OCc1ccccc1,> 99.5 µM
3,Cc1cc(C(=O)Nc2cccc(CN)c2)c2cnn(-c3ccc(F)cc3)c2n1,61.6 µM
4,CC(C)c1cc(NC(=O)OCc2ccccc2)cc(C(=O)Nc2cccc(CN)c2)c1,20 µM
5,CNC(=O)C[C@H](Nc1ccccn1)c1cc(Cl)cc(Br)c1,> 99.5 µM
6,N[C@H]1Cc2ccc(NC(=O)c3cc(Cl)cc(NC(=O)OCc4ccccc4)c3)cc2C1,2.49 µM
7,CN(C)Cc1cc(Cl)cc(C(=O)Nc2cccc(CN)c2)c1,7.99 µM
8,O=C(Nc1cc(Cl)cc(C(=O)Nc2ccc3c(c2)C[C@H](F)C3)c1)OCc1ccccc1,> 99.5 µM
9,Cc1nc(-c2ccc(Cl)cc2)sc1C(=O)Nc1cccc(CN)c1,91.1 µM
10,CCn1c(=O)c(N2CC[C@H](CO)C2)nc2ccc(C(=O)N(C)C)cc21,> 99.5 µM
11,NCc1ccc(I)c(NC(=O)c2cc(Cl)cc(NC(=O)OCc3ccccc3)c2)c1,50.6 µM
12,CCn1c(=O)c(N2CC[C@H](CO)C2)nc2cc(C(N)=O)ccc21,> 99.5 µM
13,O=C(Nc1cc(Cl)cc(C(=O)Nc2ccc(S(=O)(=O)N3CCNCC3)cc2)c1)OCc1ccccc1,> 99.5 µM
14,Cc1c(C(=O)Nc2cccc(CN)c2)cc(C2CC2)n1C,> 99.5 µM
15,O=C(Nc1cc(Cl)cc(C(=O)Nc2ccc3c(c2)OCO3)c1)OCc1ccccc1,> 99.5 µM
16,NCc1cccc(NC(=O)c2cc(Cl)cc([C@H]3CCCCN3)c2)c1,7.17 µM
17,O=C(Nc1cc(Cl)cc(C(=O)Nc2cccc([C@H]3C[C@H]3C(=O)O)c2)c1)OCc1ccccc1,62.1 µM and 77.7 µM and 77.6 µM
18,Cc1cc(NC(=O)OCc2ccccc2)cc(C(=O)Nc2cccc(CN)c2)c1,10.2 µM
19,CS(=O)(=O)c1cc(CN)cc(NC(=O)c2cc(Cl)cc(NC(=O)OCc3ccccc3)c2)c1,23.3 µM
20,Cc1c(C(=O)Nc2cccc([C@H]3CCNC3)c2)cc(C2CC2)n1C,> 99.5 µM
21,O=C(O)COc1cccc(NC(=O)c2cc(Cl)cc(NC(=O)OCc3ccccc3)c2)c1,> 99.5 µM
22,CNC(=O)[C@H](Nc1cccc(N)n1)c1cc(Cl)cc(CN)c1,> 99.5 µM
23,Cc1c(C(=O)Nc2cccc(CN)c2)cc(C(C)C)n1C,> 99.5 µM
24,O=C1NC[C@H](c2ccc(OCc3ccccc3)c(Br)c2)N1C(=O)OCc1ccccc1,> 99.5 µM
25,CSC1(C(=O)N[C@H](CC(=O)Nc2cccc(CN)c2)c2ccc(OCc3ccccc3)c(Br)c2)CCC1,11.8 µM
26,O=Cc1cc(Cl)cc(NC(=O)OCc2ccccc2)c1,> 99.5 µM

row,Structure (SMILES),IC50
1,NCCNS(=O)(=O)c1ccc(NC(=O)c2cc(Cl)cc(NC(=O)OCc3ccccc3)c2)cc1,10.9 µM
2,Cc1c(C(=O)Nc2cccc(CCN)c2)cc(C2CC2)n1C,88.3 µM
3,NCc1cc(Br)cc(NC(=O)c2cc(Cl)cc(NC(=O)OCc3ccccc3)c2)c1,16.7 µM
4,O=C(Nc1cc(Cl)cc(C(=O)Nc2ccc(C3CCNCC3)cc2)c1)OCc1ccccc1,6.02 µM
5,O=C(Nc1cc(Cl)cc(C(=O)Nc2cccc(-c3cn[nH]n3)c2)c1)OCc1ccccc1,> 99.5 µM
6,CCc1cc(C(=O)Nc2cccc(CN)c2)sc1C,> 99.5 µM
7,Cc1onc(C(=O)Nc2cccc(CN)c2)c1COc1cccc(F)c1,> 99.5 µM
8,NCc1ccc(C#CCO)c(NC(=O)c2cc(Cl)cc(NC(=O)OCc3ccccc3)c2)c1,30.6 µM
9,O=C(Nc1cc(Cl)cc(C(=O)Nc2ccc3c(c2)OCCNC3)c1)OCc1ccccc1,15.2 µM
10,Cc1nn(CCO)c(C(F)F)c1C(=O)Nc1cccc(CN)c1,> 99.5 µM
11,NCc1cccc(NC(=O)c2c(C(F)(F)F)nc3n2CCCC3)c1,> 99.5 µM
12,Cc1cnnc(C(=O)Nc2cccc(CN)c2)c1,> 99.5 µM
13,N#CC[C@H](N)c1cccc(NC(=O)c2cc(Cl)cc(NC(=O)OCc3ccccc3)c2)c1,> 99.5 µM
14,CCn1c(=O)c(N2CC[C@H](CO)C2)nc2ccc(C(=O)NCc3ccccc3)cc21,> 99.5 µM
15,O=C(Nc1cc(Cl)cc(C(=O)Nc2ccc(OC3CNC3)cc2)c1)OCc1ccccc1,5.64 µM
16,CSc1cc(Cl)cc(C(=O)Nc2cccc(-n3nn[nH]c3=O)c2)c1,> 99.5 µM
17,Cc1nc(N2CCOCC2)sc1CC(=O)Nc1cccc(CN)c1,> 99.5 µM
18,NCCCCc1ccc(NC(=O)c2cc(Cl)cc(NC(=O)OCc3ccccc3)c2)cc1,5.42 µM
19,NCc1cccc(NC(=O)c2cc(NC(=O)OCc3ccccc3)cc(C(F)(F)F)c2)c1,14.6 µM
20,CS(=O)(=O)c1ccc(CN)cc1NC(=O)c1cc(Cl)cc(NC(=O)OCc2ccccc2)c1,19.8 µM
21,O=C(O)CCc1ccc(NC(=O)c2cc(Cl)cc(NC(=O)OCc3ccccc3)c2)cc1,> 99.5 µM
22,CC(C)c1occ(C(F)(F)F)c1C(=O)Nc1cccc(CN)c1,> 99.5 µM
23,CCn1c(=O)c(N2CC[C@H](CO)C2)nc2cc(C(=O)N(C)C)ccc21,> 99.5 µM
24,NCc1ccc(COc2ccc(-c3ccc(N)nc3)c3c2OB(O)CC3)cc1,> 99.5 µM
25,CC(C)(C)OC(=O)NCc1ccc(I)c(NC(=O)c2cc(Cl)cc(NC(=O)OCc3ccccc3)c2)c1,> 99.5 µM
26,CNC(=O)[C@H](Nc1ccccn1)c1cc(Cl)cc(CN)c1,> 99.5 µM

row,Structure (SMILES),IC50
1,O=C(Nc1cc(Cl)cc(C(=O)Nc2ccc(CCN3CCOCC3)cc2)c1)OCc1ccccc1,> 99.5 µM
2,NCc1nc(-c2ccc(NC(=O)c3cc(Cl)cc(NC(=O)OCc4ccccc4)c3)cc2)n[nH]1,> 99.5 µM
3,NCc1cccc(NC(=O)[C@H]2CC(=O)Nc3ccc(Br)cc32)c1,> 99.5 µM
4,Cc1cc(C(=O)Nc2cccc(CN)c2)c2sc(N)nc2n1,> 99.5 µM
5,O=C(Nc1cc(Cl)cc(C(=O)Nc2ccc(-n3nn[nH]c3=O)cc2)c1)OCc1ccccc1,30.9 µM
6,O=C(Nc1cc(Cl)cc(C(=O)Nc2ccc([C@H]3CNCCO3)cc2)c1)OCc1ccccc1,> 99.5 µM
7,Cn1nc(C(=O)Nc2cccc(CN)c2)cc1C1CC1,> 99.5 µM
8,NC[C@H]1C[C@H]1NC(=O)c1cc(Cl)cc(NC(=O)OCc2ccccc2)c1,> 99.5 µM
9,CCc1onc(C2CCOCC2)c1C(=O)Nc1cccc(CN)c1,> 99.5 µM
10,Cn1cc(C(=O)Nc2cccc(CN)c2)c(-c2cnccn2)n1,> 99.5 µM
11,O=C(Nc1cc(Cl)cc(C(=O)Nc2ccc(N3CCNCC3)c(F)c2)c1)OCc1ccccc1,15.7 µM
12,O=C(Nc1ccc2c(c1)CNC2)c1cc(O)nc(C2CC2)c1,7.58 µM
13,N[C@H]1CC[C@H](c2ccc(NC(=O)c3cc(Cl)cc(NC(=O)OCc4ccccc4)c3)cc2)C1,5.01 µM
14,O=C(Nc1cc(Cl)cc(C(=O)Nc2cccc(C(=O)O)c2)c1)OCc1ccccc1,84 µM
15,N[C@H]1CCN(c2ccc(NC(=O)c3cc(Cl)cc(NC(=O)OCc4ccccc4)c3)cc2)C1,7.72 µM
16,NC[C@H]1C[C@@H]1NC(=O)c1cc(Cl)cc(NC(=O)OCc2ccccc2)c1,21.5 µM
17,NC1CCN(c2ccc(NC(=O)c3cc(Cl)cc(NC(=O)OCc4ccccc4)c3)cc2)CC1,7.28 µM
18,O=C(Nc1cc(Cl)cc(C(=O)Nc2ccc3c(c2)COC3)c1)OCc1ccccc1,> 99.5 µM
19,CCn1c(=O)c(N2CC[C@H](CO)C2)nc2cc(C(=O)NS(C)(=O)=O)ccc21,> 99.5 µM
20,CCNC(=O)c1ccc2nc(N3CC[C@H](CO)C3)c(=O)n(CC)c2c1,> 99.5 µM
21,O=C(Nc1cc(Cl)cc(C(=O)Nc2ccc(N3CCCNCC3)cc2)c1)OCc1ccccc1,8.78 µM
22,NCc1cccc(NC(=O)[C@H]2CCCN(C(=O)CC3CC3)C2)c1,> 99.5 µM
23,CCn1c(=O)c(N2CC[C@H](CO)C2)nc2cc(C(=O)NCc3ccccc3)ccc21,> 99.5 µM
24,NCc1cccc(NC(=O)c2nc(C3CC3)n(-c3ccccc3Cl)n2)c1,> 99.5 µM
25,O=C(Nc1cc(Cl)cc(C(=O)Nc2ccc([C@H]3CCNC3)cc2)c1)OCc1ccccc1,5.43 µM
26,CS(=O)(=O)c1ccc(NC(=O)c2cc(Cl)cc(NC(=O)OCc3ccccc3)c2)cc1,> 99.5 µM

row,Structure (SMILES),IC50
1,NCc1cc(NC(=O)c2cc(Cl)cc(NC(=O)OCc3ccccc3)c2)cc(C2CC2)c1,6.67 µM
2,CCOc1cccc(-c2ccc(NS(=O)(=O)c3cc(F)c(Cl)cc3C(=O)O)cc2)c1,21.8 µM
3,O=C(Nc1cc(Cl)cc(C(=O)Nc2ccc(CC3CCNCC3)cc2)c1)OCc1ccccc1,5.23 µM
4,Cc1cc(C(=O)Nc2cccc(CN)c2)c(NC(=O)[C@H]2CCCO2)s1,5.86 µM
5,NCc1cccc(NC(=O)c2cc(Br)cc(-n3cnnn3)c2)c1,7.07 µM
6,C[C@H]1CNC[C@@H]1c1ccc(NC(=O)c2cc(Cl)cc(NC(=O)OCc3ccccc3)c2)cc1,7.26 µM
7,CCn1c(=O)c(N2CC[C@@H](CO)C2)nc2ccc(C(=O)O)cc21,> 99.5 µM
8,CNC(=O)C[C@H](Nc1ccccn1)c1cc(Cl)cc(CN)c1,> 99.5 µM
9,COc1cc(C(=O)Nc2cccc(CN)c2)cc2cn(C)nc12,> 99.5 µM
10,O=C(Nc1cc(Cl)cc(C(=O)Nc2ccc3c(c2)CCNC3)c1)OCc1ccccc1,1.48 µM
11,CCNC(=O)c1ccc2c(c1)nc(N1CC[C@H](CO)C1)c(=O)n2CC,> 99.5 µM
12,O=C(Nc1cc(Cl)cc(C(=O)Nc2ccc([C@]34CNC[C@H]3C4)cc2)c1)OCc1ccccc1,21.2 µM
13,Cc1oc(C(=O)Nc2cccc(CN)c2)cc1COc1ccccc1,> 99.5 µM
14,CN(C)[C@H](C(=O)Nc1cccc(CN)c1)c1cc(Cl)cc(Cl)c1,> 99.5 µM
15,NCc1cccc(NC(=O)c2cc(Cl)cc(Cl)c2OCc2ccccc2)c1,> 99.5 µM
16,O=C(Nc1cc(Cl)cc(C(=O)Nc2ccc(C3CNC3)cc2)c1)OCc1ccccc1,5.99 µM
17,CCn1c(=O)c(N2CC[C@H](CO)C2)nc2ccc(C(=O)OC)cc21,> 99.5 µM
18,COC(=O)[C@]12CC[C@](C(=O)Nc3cccc(CN)c3)(COC1)C2,> 99.5 µM
19,O=C(Nc1cc(Cl)cc(C(=O)Nc2ccc3c(c2)C(=O)OC3)c1)OCc1ccccc1,> 99.5 µM
20,N#Cc1cc(NC(=O)OCc2ccccc2)cc(C(=O)Nc2cccc(CN)c2)c1,15.4 µM
21,Cc1cc(C(=O)Nc2cccc(CN)c2)c2c(n1)CCCC2,> 99.5 µM
22,Cc1[nH]c2ccc(Br)cc2c1CC(=O)Nc1cccc(CN)c1,> 99.5 µM
23,O=C(Nc1cc(Cl)cc(C(=O)Nc2ccc3c(c2)CNCC3)c1)OCc1ccccc1,3.4 µM
24,O=C(O)Cc1cccc(NC(=O)c2cc(Cl)cc(NC(=O)OCc3ccccc3)c2)c1,> 99.5 µM
25,NCc1cccc(NC(=O)c2cc(C(F)(F)F)cnc2N2CCOCC2)c1,> 99.5 µM
26,C[C@H]1C[C@@H](C(=O)Nc2cccc(CN)c2)CCO1,> 99.5 µM
